Assays:
rhizavidin [1] = assay: affinity column purification of rhizavidin with immobilized ligand; set-up: species or system Rhizobium etli; conditions: data not shown
Method: The following steps can be followed to prepare a LA-matrix for use in the methods as disclosed herein: • i. Resuspend CARBOXYLINK™ Coupling Resin (Life technologies, 20266) and aliquot 1 ml of suspended resin into an empty column, e.g., a bio-rad Econo-Pac Chromatography Column, allow resin to settle. Wash the resin with approx.20 ml of water and add 10 ml of PBS (×1) to equilibrate resin. • ii. Prepare a 100 mg/ml solution of Sulfo-NHS by dissolving 50 mg of Sulfo-NHS (N-hydroxysulfosuccinimide) in 0.5 ml of 0.1M MES buffer. • iii. Prepare a Sulfo-NHS/LA mixture by adding 0.25 ml of ethanol and 0.25 ml of 50 mg/ml LA stock solution (12.5 mg of LA) to 0.5 ml of Sulfo-NHS (100 mg/ml). • iv. To cross link the LA to the resin, dissolve 25 mg of EDC in 0.75 ml of coupling buffer and immediately add to Sulfo-NHS/LA mixture. Incubate the EDC/Sulfo-NHS/LA mixture with rotation for 30 min RT. Adjust the pH of the EDC/Sulfo-NHS/LA mixture to pH 7.0 by adding 1M Na2HPO4 (pH11) (approx. 0.5 ml of 1M Na2HPO4) • v. Resuspend the equilibrated CARBOXYLINK™ Coupling Resin with EDC/Sulfo-NHS/LA mixture and transfer everything to a 5 ml tube, incubate with rotation overnight RT. • vi. Transfer resin into an empty column, allow LA resin/LA matrix to settle. Wash resin with the following reagents in the following order; (i) 20 ml of wash buffer, (ii) 20 ml of H2O, (iii) Wash resin comprising 5 ml of 20% ethanol. Store LA resin/LA matrix in 20% ethanol until use.
The following steps can be followed in the methods as disclosed herein to purify a biotin-binding protein, e.g., rhizavidin or a rhiavidin fusion protein using a LA-matrix from a bacterial suspension expressing the rhizavidin or a rhiavidin fusion protein: • v. Collect E. coli culture by centrifugation, discard supernatant, and resuspend pelleted cells with a lysis buffer (20 mM Tris, 1M NaCl, pH8.0) containing DNase, proteinase inhibitors and 10 mM MgCl2. […] Transfer resin into an empty column after incubation and wash the LA resin with wash buffer (50% ethanol, 20 mM Tris, 1M NaCl) until no protein is detected in flow through • ix. […]

rhizavidin [2] = assay: binding of rhizavidin to ligands assessed for affinity chromatography; set-up: species or system Rhizobium etli; conditions: for binding to rhizavidin: ligand assessed for affinity chromatography
streptavidin = streptavidin (Streptomyces avidinii, UniProt P22629); conditions: cited from earlier work
Sequence of streptavidin (P22629 25-183): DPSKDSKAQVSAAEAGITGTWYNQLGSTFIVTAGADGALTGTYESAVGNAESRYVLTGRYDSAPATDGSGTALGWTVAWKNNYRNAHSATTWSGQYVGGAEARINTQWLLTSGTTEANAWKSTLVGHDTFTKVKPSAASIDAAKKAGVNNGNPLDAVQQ

Compound	effectiveness of column comprising the ligand at purifying rhizavidin (rhizavidin [1])	binding to rhizavidin (rhizavidin [2])	binding to streptavidin (streptavidin)	affinity of binding to rhizavidin (rhizavidin [2])	affinity of rhizavidin for lipoic acid compared with polyhistadine tag for nickel (rhizavidin [2])
O=C(O)c1ccccc1N=Nc1ccc(O)cc1 [HABA, hydrooxyazobenzene-benzoic acid]	not effective	did not bind	bind with high affinity	–	–
Cc1cc(N=Nc2ccccc2C(=O)O)cc(C)c1O [dimethyl-HABA]	not effective	did not bind	bind with high affinity	–	–
O=C(O)CCCCC1CCSS1 (stereo not drawn) [lipoic acid, 1,2-dithione-3-pentanoic acid]	effective	–	–	micromolar affinity	approximately the same as histadine
